The results in this text go back to US12454518B2, “Substituted N-(2-(2,6-dioxopiperidin-3-yl)-1,3-dioxoisoindolin-5-yl)arylsulfonamide analogs as modulators of cereblon protein” (ST. JUDE CHILDREN'S RESEARCH HOSPITAL, INC., priority 2020, dated 2025).

One data set can be described thus: Aqueous solubility assay. The conditions noted are these: pH = 7.4, in triplicate. It is filed as physicochemical. Here is the method: The storage plate was sealed and incubated at RT for 18 h. The suspension was then filtered through a 96-well filter plate (pION Inc., Woburn, MA). 75 μL of filtrate was mixed with 75 μL 1-propanol to make the sample plate, and the UV spectrum of the sample plate was read. Calculations were carried out with μSOL Evolution software based on the area under the curve (AUC) of the UV spectrum of the sample and reference plates. All compounds were tested in triplicate.

The target of a further data set is T1, IKZF1 (Homo sapiens, UniProt Q13422).
T1 construct: endogenous in cells; host or cells: MV4-11
T1 sequence (Q96SW2 whole entry partner): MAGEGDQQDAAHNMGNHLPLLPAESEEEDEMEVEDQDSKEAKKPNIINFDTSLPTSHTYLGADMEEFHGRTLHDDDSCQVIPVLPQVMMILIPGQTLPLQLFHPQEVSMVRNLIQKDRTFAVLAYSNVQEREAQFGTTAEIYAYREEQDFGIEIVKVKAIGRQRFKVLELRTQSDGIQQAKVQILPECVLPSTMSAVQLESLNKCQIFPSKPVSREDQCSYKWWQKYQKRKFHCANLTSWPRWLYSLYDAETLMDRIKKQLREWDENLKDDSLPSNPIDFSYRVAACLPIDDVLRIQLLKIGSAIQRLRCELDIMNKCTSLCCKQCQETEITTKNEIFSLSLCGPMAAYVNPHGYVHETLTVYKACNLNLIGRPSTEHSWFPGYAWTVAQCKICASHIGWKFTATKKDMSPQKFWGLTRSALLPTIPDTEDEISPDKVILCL
T1 sequence (Q16531 2-1140 partner limits assumed): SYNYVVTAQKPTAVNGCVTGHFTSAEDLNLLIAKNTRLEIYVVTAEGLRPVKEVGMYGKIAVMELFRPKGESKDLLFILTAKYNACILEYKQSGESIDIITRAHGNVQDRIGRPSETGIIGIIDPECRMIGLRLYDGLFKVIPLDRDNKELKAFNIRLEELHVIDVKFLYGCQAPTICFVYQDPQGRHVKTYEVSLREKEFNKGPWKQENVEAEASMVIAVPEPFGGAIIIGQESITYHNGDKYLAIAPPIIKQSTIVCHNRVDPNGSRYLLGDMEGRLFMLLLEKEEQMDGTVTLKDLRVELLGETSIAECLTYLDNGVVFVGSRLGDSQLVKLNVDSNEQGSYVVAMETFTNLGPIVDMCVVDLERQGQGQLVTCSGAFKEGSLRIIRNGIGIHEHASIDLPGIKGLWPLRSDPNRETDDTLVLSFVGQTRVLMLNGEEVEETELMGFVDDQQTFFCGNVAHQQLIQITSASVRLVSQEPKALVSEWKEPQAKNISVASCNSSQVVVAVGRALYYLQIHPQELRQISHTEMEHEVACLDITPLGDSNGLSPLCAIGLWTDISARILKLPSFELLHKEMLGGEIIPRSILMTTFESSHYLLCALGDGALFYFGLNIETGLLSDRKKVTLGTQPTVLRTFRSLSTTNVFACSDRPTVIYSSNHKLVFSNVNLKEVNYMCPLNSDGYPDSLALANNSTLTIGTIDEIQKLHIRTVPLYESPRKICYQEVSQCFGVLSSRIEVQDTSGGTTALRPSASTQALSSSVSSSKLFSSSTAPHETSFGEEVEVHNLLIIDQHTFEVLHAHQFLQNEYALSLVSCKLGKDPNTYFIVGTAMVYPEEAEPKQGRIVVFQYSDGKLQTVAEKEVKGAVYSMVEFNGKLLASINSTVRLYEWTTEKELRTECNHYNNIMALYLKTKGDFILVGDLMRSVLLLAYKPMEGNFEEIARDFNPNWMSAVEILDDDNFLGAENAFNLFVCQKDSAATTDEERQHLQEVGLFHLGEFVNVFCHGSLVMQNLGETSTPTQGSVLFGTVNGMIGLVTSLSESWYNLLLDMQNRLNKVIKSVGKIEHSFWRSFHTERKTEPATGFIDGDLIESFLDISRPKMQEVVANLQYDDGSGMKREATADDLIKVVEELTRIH
T1 sequence (Q13422 whole entry): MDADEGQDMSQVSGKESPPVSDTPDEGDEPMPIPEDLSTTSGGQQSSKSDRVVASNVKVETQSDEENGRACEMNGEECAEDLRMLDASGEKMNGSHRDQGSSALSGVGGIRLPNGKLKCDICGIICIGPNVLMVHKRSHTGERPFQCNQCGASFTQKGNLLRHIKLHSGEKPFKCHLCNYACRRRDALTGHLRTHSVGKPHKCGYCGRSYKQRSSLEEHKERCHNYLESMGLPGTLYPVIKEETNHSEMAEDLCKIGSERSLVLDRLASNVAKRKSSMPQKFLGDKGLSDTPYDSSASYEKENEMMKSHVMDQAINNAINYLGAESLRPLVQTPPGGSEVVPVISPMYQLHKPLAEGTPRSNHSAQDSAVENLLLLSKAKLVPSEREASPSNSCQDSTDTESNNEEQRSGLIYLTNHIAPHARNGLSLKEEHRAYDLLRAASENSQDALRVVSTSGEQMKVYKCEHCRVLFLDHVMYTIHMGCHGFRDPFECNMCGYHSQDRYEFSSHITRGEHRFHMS
The data set is described as follows: Immunoblot analysis of IKZF1 degradation in MV4-11 cells. Type of data set: cell-based. The following applies: for IKZF1 degradation at 4 hours: any of the concentrations tested. The protocol:
(§1) MV4-11 cells were seeded in 6-well plates (1×10^6 cells per well). After overnight incubation, the cells were treated with indicated concentrations for specific timepoints. […] After blocking the membrane with LI-COR TBS blocking buffer and incubation in primary antibody overnight, the corresponding protein signals were detected using IRDye secondary antibodies and Odyssey Imaging System. Image Studio Lite Ver 5.2 was used for blot quantification. […] IRDye®, 800CW Goat anti-Mouse IgG Secondary Antibody and IRDye® 680RD Goat anti-Rabbit IgG Secondary Antibody were used as secondary antibodies.
For orientation: Immunoblotting shows a protein as a band on a membrane.

The next data set deals with T2, GSPT1 (Homo sapiens, UniProt P15170+Q96SW2).
T2 construct: endogenous in cells; host or cells: MV4-11
T2 sequence (P15170 whole entry): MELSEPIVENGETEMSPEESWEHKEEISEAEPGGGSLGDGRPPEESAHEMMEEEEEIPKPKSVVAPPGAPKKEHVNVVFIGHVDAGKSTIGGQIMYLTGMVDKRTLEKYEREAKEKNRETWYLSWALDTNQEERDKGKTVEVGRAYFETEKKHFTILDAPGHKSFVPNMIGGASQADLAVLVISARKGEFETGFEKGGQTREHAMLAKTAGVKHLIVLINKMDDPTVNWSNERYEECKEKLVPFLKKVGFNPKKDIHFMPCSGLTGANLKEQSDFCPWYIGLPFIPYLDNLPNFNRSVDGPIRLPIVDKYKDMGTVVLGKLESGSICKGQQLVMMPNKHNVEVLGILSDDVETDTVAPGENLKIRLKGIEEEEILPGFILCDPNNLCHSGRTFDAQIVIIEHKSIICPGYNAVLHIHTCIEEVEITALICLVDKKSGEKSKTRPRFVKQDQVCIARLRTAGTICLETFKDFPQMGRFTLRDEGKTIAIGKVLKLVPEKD
T2 sequence (Q96SW2 whole entry): as the sequence (Q96SW2 whole entry partner) above
T2 sequence (Q16531 2-1140 partner limits assumed): as the sequence (Q16531 2-1140 partner limits assumed) above
Nature of the data set: Immunoblot analysis of GSPT1 degradation in MV4-11 cells. It is filed as cell-based. Further details: Dmax: dose or concentration left out as unconfirmed. The protocol: as §1

Data set [1] concerns MV4-11 cells. The data set is described as follows: Lenalidomide competition assay. The conditions noted are these: lenalidomide 10 μM, 3 days. It is filed as cell-based, human.
Method: Compounds were screened in human cancer cell lines and each cell line was cultured in the complete medium recommended by the vendor and seeded in Corning 8804BC white 384-well assay plates at density of 1,000, 1,000, 1,000, 1,500 and 7,500 cells per well, for MV4-11, HD-MB03, MB004, MB002 and MHH-CALL4 cells respectively. After overnight incubation at 37° C. in a humidified 5% CO2 incubator, cells were treated with compounds in dose-response format using a Pintool on a Biomek FX^P Laboratory Automation Workstation (Beckman Coulter). […] After 72 h incubation, cell proliferation was assessed using Cell Titer-Glo (CTG) luminescent cell viability assay (Promega) according to the manufacturer's instruction. Luminescence signal was measured using an Envision plate reader (Perkin-Elmer).
Data set [2] in a line: Pharmacokinetics study in CD1 mice. Type of data set: in vivo. The conditions noted are these: 3 mg/kg IV. The protocol: Healthy female CD1 mice (8-12 weeks old) weighing between 20 to 30 g were procured from Global, India. Three mice were housed in each cage. Temperature and humidity were maintained at 22±3° C. and 30-70%, respectively and illumination was controlled to give a sequence of 12 hr light and 12 hr dark cycle. Temperature and humidity were recorded by auto-controlled data logger system. All the animals were provided laboratory rodent diet (Envigo Research private Ltd, Hyderabad). Reverse osmosis water treated with ultraviolet light was provided ad libitum. Formulation vehicle: 5% v/v NMP: 5% v/v Solute HS-15 and 90% v/v normal saline. […] The dosing volume for intravenous was 5 mL/kg and for oral administration 10 mL/kg. Blood samples (approximately 60 μL) were collected under light isoflurane anesthesia (Surgivet®) from retro orbital plexus from a set of three mice at 0.08 (for IV only), 0.25, 0.5, 1, 2, 4, 6 (for PO only), 8, 12 and 24 hr. Immediately after blood collection, plasma was harvested by centrifugation at 4000 rpm, 10 min at […] and samples were stored at −70±10° C. until bioanalysis. […] Non-Compartmental-Analysis tool of Phoenix WinNonlin® (Version 8.0) was used to assess the pharmacokinetic parameters. Peak plasma concentration (Cmax) and time for the peak plasma concentration (Tmax) were the observed values. The areas under the concentration time curve (AUClast and AUCinf) were calculated by linear trapezoidal rule. The terminal elimination rate constant, ke was determined by regression analysis of the linear terminal portion of the log plasma concentration-time curve. Clearance was estimated as Dose/AUCinf and Vss as CL*MRT. The oral bioavailability was calculated as ratio of dose normalized AUC of oral and intravenous group multiplied by 100.

Data set [3] deals with caspase 3/7 activity in Mv4:11 cells. Nature of the data set: Caspase 3/7 activity assay. It is filed as cell-based, human. The conditions noted are these: Caspase-Glo, time points 4, 8 and 24 hours; 10 and 100 nM.
Data set [4] relates to MV4-11 cells. Nature of the data set: MV-4-11 cell viability assay. The following applies: for EC50: Homo sapiens.
Method: MV-4-11 cell line was purchased from the American Type Culture Collection (ATCC, Manassas, VA). The cells were cultured according to recommendations in IMDM cell culture media (ATCC). […] Compounds were transferred to the assay plate from a dose-response plate using a Pintool on a Biomek FXP Laboratory Automation Workstation (Beckman Coulter). […] Luminescence was measured on an Envision plate reader (Perkin-Elmer).
After overnight incubation at 37° C. in a humidified 5% CO2 incubator, cells were treated with compounds in dose-response format using a Pintool on a Biomek FX^P Laboratory Automation Workstation (Beckman Coulter). […] Luminescence signal was measured using an Envision plate reader (Perkin-Elmer).
In data set [5] the target is T3, GSPT1 HiBiT tag protein in HEK293 cells (Homo sapiens, UniProt P15170+Q96SW2).
T3 construct: HEK293_hGSPT1_HiBiT tagged cells were generated using CRISPR-Cas12a technology; endogenous in cells; host or cells: HEK293 (genome-edited at the GSPT1 locus, HiBiT knock-in)
T3 sequence (P15170 whole entry): as the sequence (P15170 whole entry) above
T3 sequence (Q96SW2 whole entry): as the sequence (Q96SW2 whole entry partner) above
T3 sequence (Q16531 2-1140 partner limits assumed): as the sequence (Q16531 2-1140 partner limits assumed) above
Nature of the data set: hGSPT1 HiBiT assay. The conditions noted are these: 4 hrs incubation, class symbols, read-out: GSPT1 HiBit EC50. It is filed as cell-based. Here is the method:
hGSPT1 HiBiT cell line. HEK293_hGSPT1_HiBiT tagged cells were generated using CRISPR-Cas12a technology. Briefly, ˜400,000 HEK293 cells were transiently co-transfecting with precomplexed ribonuclear proteins (RNPs) consisting of 80 pmol of crRNA (IDT), 62 pmol of Cas12a protein (IDT), 3 ug of ssODN donor (IDT; AItR™ modifications), 78 pmol of electroporation enhancer (IDT), and 200 ng of pMaxGFP(Lonza). The transfection was performed via nucleofection (Lonza, 4D-Nucleofector™ X-unit) using solution P3 and program CM-130 in a small (20 ul) cuvette according to the manufacturer's recommended protocol. Five days post-nucleofection, cells were single cell sorted for GFP+(transfected) cells by FACs in 96-well plates and clonally selected. Clones were screened and verified for the desired modification via targeted deep sequencing using gene specific primers with partial Illumina adapter overhangs as previously described.^58 In brief, clonal cell pellets were harvested, lysed and used to generate gene specific amplicons with partial Illumina adapters in PCR #1. Amplicons were indexed in PCR #2 and pooled with other targeted amplicons for other loci to create sequence diversity. Additionally, 10% PhiX Sequencing Control V3 (Illumina) was added to the pooled amplicon library prior to running the sample on an Miseq Sequencer System (Illumina) to generate paired 2×250 bp reads. Samples were demultiplexed using the index sequences, fastq files were generated, and NGS analysis was performed using CRIS.py.^59 Final clones were authenticated using the PowerPlex® Fusion System (Promega) performed at the Hartwell Center (St. Jude) and tested negative for mycoplasma by the MycoAlert™Plus Mycoplasma Detection Kit (Lonza). Editing construct sequences and screening primers are listed below in Table 4.
hGSPT1 HiBiT assay. […] After 4 hrs incubation, the level of GSPT1 HiBiT tag protein was evaluated using Nano-Glo® HiBiT Lytic Detection System (Promega) according to the manufacturer's instruction.
Background: HiBiT is a short tag that completes a luciferase, so light tracks the accessible tagged protein.

The next data set deals with T4, 6XHis-CRBN-DDB1 protein (Homo sapiens, UniProt Q96SW2).
T4 construct: 6XHis (N)
T4 sequence (Q96SW2 whole entry): as the sequence (Q96SW2 whole entry partner) above
T4 sequence (Q16531 whole entry partner): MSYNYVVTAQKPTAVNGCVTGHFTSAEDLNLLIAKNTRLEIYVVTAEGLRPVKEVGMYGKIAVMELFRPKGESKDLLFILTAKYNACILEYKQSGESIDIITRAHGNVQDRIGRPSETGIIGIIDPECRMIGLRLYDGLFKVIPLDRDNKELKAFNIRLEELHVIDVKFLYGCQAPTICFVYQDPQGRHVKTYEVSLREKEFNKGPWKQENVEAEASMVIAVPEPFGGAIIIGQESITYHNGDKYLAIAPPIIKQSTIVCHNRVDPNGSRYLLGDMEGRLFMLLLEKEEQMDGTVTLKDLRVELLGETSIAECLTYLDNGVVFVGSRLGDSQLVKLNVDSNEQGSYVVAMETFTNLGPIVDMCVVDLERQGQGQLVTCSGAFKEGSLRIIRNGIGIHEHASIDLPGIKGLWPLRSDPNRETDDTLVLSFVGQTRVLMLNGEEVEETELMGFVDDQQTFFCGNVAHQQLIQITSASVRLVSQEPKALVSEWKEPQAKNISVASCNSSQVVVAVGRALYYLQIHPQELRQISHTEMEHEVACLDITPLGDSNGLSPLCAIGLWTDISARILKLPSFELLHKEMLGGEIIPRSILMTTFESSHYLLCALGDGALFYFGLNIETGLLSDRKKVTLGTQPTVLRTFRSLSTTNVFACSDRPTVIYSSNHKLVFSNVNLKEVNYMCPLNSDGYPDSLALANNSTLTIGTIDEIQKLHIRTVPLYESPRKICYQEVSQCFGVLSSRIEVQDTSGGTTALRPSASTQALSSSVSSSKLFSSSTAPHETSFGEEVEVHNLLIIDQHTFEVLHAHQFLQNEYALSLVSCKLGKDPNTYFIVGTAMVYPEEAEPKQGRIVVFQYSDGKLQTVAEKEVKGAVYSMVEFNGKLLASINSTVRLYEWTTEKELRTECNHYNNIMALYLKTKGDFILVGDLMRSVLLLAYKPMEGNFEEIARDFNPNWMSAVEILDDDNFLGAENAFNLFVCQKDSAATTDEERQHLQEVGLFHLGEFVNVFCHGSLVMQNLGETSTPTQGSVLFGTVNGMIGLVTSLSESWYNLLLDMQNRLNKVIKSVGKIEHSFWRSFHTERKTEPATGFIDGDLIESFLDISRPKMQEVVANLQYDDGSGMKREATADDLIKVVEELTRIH
Nature of the data set: CRBN fluorescence polarization assay. The following applies: class symbols; read-out: CRBN FP IC50. Type of data set: binding. The protocol: 6XHis-CRBN-DDB1 protein (200 nM) and Cy5-O-Len probe (30 nM) were combined in 20 mM HEPES pH 7, 150 mM NaCl, 0.005% Tween-20 assay buffer. […] The plates were incubated in the dark for 1 hour at room temperature and then read on an Envision plate reader (PerkinElmer, Massachusetts, USA).

Setting [6] is: MV4-11, 72 h, read-out: MV4-11 EC50.
The mark [7] stands for this setting: MV4-11, read-out: antiproliferative activity in MV4-11, EC50.

One may read the Dmax as the greatest extent of degradation seen. A word on the clearance: it is the volume of plasma or blood freed of the substance per unit of time. As usually defined, the EC50 is the concentration needed to bring the measured effect to its halfway point. The IC50 is the concentration needed to halve the response being measured.

Read-outs that look alike come from different tables or passages of the source.

`O=C1CCC(N2Cc3cc(CNC(=O)C(F)(F)c4ccc(Cl)cc4)ccc3C2=O)C(=O)N1` (stereo not drawn) [CC90009, reference compound]: the “Sol. (aqueous solubility)” value in “Aqueous solubility assay” was 77 µM.

On to `O=C1CCC(N2Cc3cc(CNC(=O)C(F)(F)c4ccc(Cl)cc4)ccc3C2=O)C(=O)N1` (stereo not drawn) [CC-90009, reference compound], for which the Dmax on IKZF1 (24 h) was above 90%; on GSPT1 (MV4-11 cells, 24 h, read-out: GSPT1 Dmax), above 90%. In addition, the maximal degradation (Dmax) at 10 µM at GSPT1 (MV4-11 cells, 4 h, at 10 μM, read-out: GSPT1 maximum degradation efficacy, Dmax) came out at 74%.

As for `O=C1CCC(N2C(=O)c3ccc(NS(=O)(=O)c4ccccc4OC(F)(F)F)cc3C2=O)C(=O)N1` (stereo not drawn) [compound 1, N-(2-(2,6-dioxopiperidin-3-yl)-1,3-dioxoisoindolin-5-yl)-2-(trifluoromethoxy)benzenesulfonamide], the “Sol. (aqueous solubility)” value in “Aqueous solubility assay” came out at 67 µM. For the same molecule, at IKZF1, the “IKZF1 degradation at 4 hours” value is on record as “did not significantly degrade IKZF1” and the “IKZF1 protein abundance after 24 hours” value was “dose-dependent decrease”. The “antiproliferative effect in presence of lenalidomide” value in the data set on MV4-11 cells [1] was “abrogating the antiproliferative effects”. Moreover, in data set [2], the clearance was determined as 0.46 mL/min/kg, the “terminal elimination half-life (t1/2)” value was determined as 3.4 h and the volume of distribution came to 0.15 L/kg. In addition, the “time point at which caspase activation was observed” value in data set [3] was determined as 8 h. Also, the EC50 with MV4-11 cells [4] (setting [6]) is 0.0015 µM. For the same molecule, the EC50 with MV4-11 cells [4] (setting [7]) was determined as 0.0015 µM.

Take `O=C1CCC(N2C(=O)c3ccc(NS(=O)(=O)c4cccc(OC(F)(F)F)c4)cc3C2=O)C(=O)N1` (stereo not drawn) [compound 2, N-(2-(2,6-dioxopiperidin-3-yl)-1,3-dioxoisoindolin-5-yl)-3-(trifluoromethoxy)benzenesulfonamide]: the “Sol. (aqueous solubility)” value in “Aqueous solubility assay” was 64 µM. Moreover, at IKZF1, the “effects on the protein levels of IKZF1 by immunoblotting” value is recorded as “no effects” and the “IKZF1 protein abundance after 24 hours” value is “dose-dependent decrease”. For the same molecule, the “effects on the protein levels of GSPT1 by immunoblotting” value at GSPT1 (MV4-11 cells) is “no effects”. Also, in the data set with MV4-11 cells [4] (setting [6]), the EC50 is above 10 µM. In addition, the concentration giving a half-maximal response (EC50) with MV4-11 cells [4] (setting [7]) was found to be 0.052 µM.

As to `Cc1c(Cl)cccc1S(=O)(=O)Nc1ccc2c(c1)C(=O)N(C1CCC(=O)NC1=O)C2=O` (stereo not drawn) [compound 5, 3-chloro-N-(2-(2,6-dioxopiperidin-3-yl)-1,3-dioxoisoindolin-5-yl)-2-methylbenzenesulfonamide], the “Sol. (aqueous solubility)” value in “Aqueous solubility assay” was found to be 64 µM. In addition, the “IKZF1 degradation at 4 hours” value at IKZF1 is given as “did not significantly degrade IKZF1”. Further, in the data set with MV4-11 cells [1], the “antiproliferative effect in presence of lenalidomide” value is “abrogating the antiproliferative effects”. Besides, the Dmax at GSPT1 (MV4-11, read-out: GSPT1 maximum degradation efficacy, Dmax) stood at 60%. Besides, in data set [3], the “time point at which caspase activation was observed” value was found to be 24 h. For the same molecule, the EC50 with MV4-11 cells [4] (setting [6]) turned out to be 0.052 µM.

`Cc1ccc(S(=O)(=O)Nc2ccc3c(c2)C(=O)N(C2CCC(=O)NC2=O)C3=O)cc1Cl` (stereo not drawn) [compound 7, 3-chloro-N-(2-(2,6-dioxopiperidin-3-yl)-1,3-dioxoisoindolin-5-yl)-4-methylbenzenesulfonamide]: the EC50 in the data set with MV4-11 cells [4] (setting [6]) was above 10 µM.

Turning to `O=C1CCC(N2C(=O)c3ccc(NS(=O)(=O)c4ccccc4)cc3C2=O)C(=O)N1` (stereo not drawn) [compound 20, N-(2-(2,6-dioxopiperidin-3-yl)-1,3-dioxoisoindolin-5-yl)benzenesulfonamide], the “Sol. (aqueous solubility)” value in the data set “Aqueous solubility assay” came to 71 µM. Further, in the data set on MV4-11 cells [4] (setting [6]), the EC50 was above 10 µM. Besides, the “cell potency in MV4-11 cells (in words)” value in the data set with MV4-11 cells [4] (MV4-11 cells) was “inactive”.

On to `O=C1CCC(N2Cc3cc(NS(=O)(=O)c4ccccc4)ccc3C2=O)C(=O)N1` (stereo not drawn) [compound 38, N-(2-(2,6-dioxopiperidin-3-yl)-1-oxoisoindolin-5-yl)benzenesulfonamide], for which the DC50 in data set [5] is above 10 µM.

For the molecule `O=C1CCC(N2Cc3cc(NS(=O)(=O)c4cccc(OC(F)(F)F)c4)ccc3C2=O)C(=O)N1` (stereo not drawn) [compound 43, N-(2-(2,6-dioxopiperidin-3-yl)-1-oxoisoindolin-5-yl)-3-(trifluoromethoxy)benzenesulfonamide], in data set [5], the DC50 is below 1 µM.

With `O=C1CCC(N2Cc3cc(NS(=O)(=O)c4ccccc4C(F)(F)F)ccc3C2=O)C(=O)N1` (stereo not drawn) [compound 44, N-(2-(2,6-dioxopiperidin-3-yl)-1-oxoisoindolin-5-yl)-2-(trifluoromethyl)benzenesulfonamide], the DC50 in [5] is above 10 µM.

With `CC(C)(C)c1ccc(S(=O)(=O)Nc2ccc3c(c2)CN(C2CCC(=O)NC2=O)C3=O)cc1` (stereo not drawn) [compound 46], the DC50 in [5] was below 1 µM.

`Cc1ccc(CS(=O)(=O)Nc2ccc3c(c2)C(=O)N(C2CCC(=O)NC2=O)C3=O)cc1` (stereo not drawn) [compound 58, N-(2-(2,6-dioxopiperidin-3-yl)-1,3-dioxoisoindolin-5-yl)-1-(p-tolyl)methanesulfonamide]: on 6XHis-CRBN-DDB1 protein, the IC50 was below 1 µM.

Turning to `Cc1noc(C)c1S(=O)(=O)Nc1ccc2c(c1)C(=O)N(C1CCC(=O)NC1=O)C2=O` (stereo not drawn) [compound 60, N-(2-(2,6-dioxopiperidin-3-yl)-1,3-dioxoisoindolin-5-yl)-3,5-dimethylisoxazole-4-sulfonamide], the IC50 on 6XHis-CRBN-DDB1 protein was below 1 µM.

For `O=C1CCC(N2C(=O)c3ccc(NS(=O)(=O)c4cccc(Cl)c4F)cc3C2=O)C(=O)N1` (stereo not drawn) [compound 61, 3-chloro-N-(2-(2,6-dioxopiperidin-3-yl)-1,3-dioxoisoindolin-5-yl)-2-fluorobenzenesulfonamide], the IC50 at 6XHis-CRBN-DDB1 protein is below 1 µM.

`O=C1CCC(N2C(=O)c3ccc(NS(=O)(=O)c4ccc(F)cc4Cl)cc3C2=O)C(=O)N1` (stereo not drawn) [compound 67, 2-chloro-N-(2-(2,6-dioxopiperidin-3-yl)-1,3-dioxoisoindolin-5-yl)-4-fluorobenzenesulfonamide]: on 6XHis-CRBN-DDB1 protein, the IC50 was below 1 µM. In addition, the DC50 in data set [5] is above 10 µM.
